This note sets out measurements from patent US8008303B2, “Biphenyl derivatives and their use in treating hepatitis C” (AstraZeneca AB, priority 2005, dated 2011).

pIC50: −log10 of the molar value. Read-outs that look alike come from different tables or passages of the source. Where only a bound is given, the exact number is not on record here.

Data set [1] relates to HCV replicon cells Huh 9B. Put plainly: HCV replicon assay (luciferase readout). Format: cell-based. In a few lines:
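Compounds, made up at twice final strength (final DMSO 1%), were added to subgenomic replicon cells one day after plating. Incubation then ran 72 h at 37 °C, 5% CO2, without G418. Replication was quantified as firefly luciferase luminescence in lysed cells, with cytotoxicity assessed on a duplicate clear plate.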
For orientation: Replicon systems follow genome replication, usually without infectious particles.

For data set [2], the system named is HCV replicon cells Huh 9B. Format: cell-based.
Setting [3] is: Hepatitis C virus, 72 h, concentration reducing replicon level (luciferase activity) by 50% vs untreated cell control, 72 h incubation.
The mark [4] stands for this setting: concentration reducing total cell area by 50% relative to DMSO controls, methylene blue, absorbance 620 nm, 72 h incubation.
[5] abbreviates: concentration reducing replicon level (luciferase activity) by 50% vs untreated cell control, 72 h incubation.

Broadly, the pIC50 is the IC50 on a negative log10 scale, so that one unit is a factor of ten. The low end stands for a high IC50, the high end for a low IC50. `Cc1ccc(NC(=O)c2ccco2)cc1-c1ccc(C(=O)NCc2cccc(Cl)c2)cc1` [Example 209, Furan-2-carboxylic acid [4′-(3-chloro-benzylcarbamoyl)-6-methyl-biphenyl-3-yl]-amide] gave a pIC50 in data set [1] (setting [3]) of 5.30 to 6.00. The TD50 entry in data set [2] (setting [4]) was “** (** > 50 μM)”.

Turning to `COc1ccc(C(=O)Nc2ccc(N3CCS(=O)(=O)CC3)cc2)cc1-c1ccc(C(=O)Nc2ccc(N3CCN(C)CC3)cc2)cc1` [Example 261, 6-Methoxy-biphenyl-3,4′-dicarboxylic acid 3-{[4-(4-(1,1-dioxo-1lambda*6*-thiomorpholin-4-yl)-phenyl]-amide} 4′-{[4-(4-methyl-piperazin-1-yl)-phenyl]-amide}], the pIC50 in data set [1] was 5.30 to 6.00. For the same compound, the TD50 result in data set [2] is listed as “* (key: * < 50 μM; ** > 50 μM)”.

`Cc1ccc(NC(=O)C2CC2)cc1-c1ccc(C(=O)Nc2ccc(CN(C)C)cc2)cc1` [Example 223, 5′-(Cyclopropanecarbonyl-amino)-2′-methyl-biphenyl-4-carboxylic acid (4-dimethylaminomethyl-phenyl)-amide] had a pIC50 in data set [1] (setting [3]) of 5.30 to 6.00. The TD50 entry in data set [2] (setting [4]) is reported as “* (* < 50 μM)”.

In data set [1] (setting [3]), `Cc1ccc(NC(=O)c2cccs2)cc1-c1ccc(C(=O)Nc2ccc(CN3CCS(=O)(=O)CC3)cc2)cc1` [Example 155, Thiophene-2-carboxylic acid {4′-[4-(1,1-dioxo-1lambda*6*-thiomorpholin-4-ylmethyl)-phenylcarbamoyl]-6-methyl-biphenyl-3-yl}-amide] gave a pIC50 greater than 6.00. Moreover, the TD50 result in data set [2] (setting [4]) was “* (* < 50 μM)”.

On to `Cc1ccc(C(=O)Nc2ccc(N3CCOCC3)cc2)cc1-c1ccc(C(=O)Nc2ccc(C#N)cc2)cc1` [Example 24, 6-Methyl-biphenyl-3,4′-dicarboxylic acid 4′-[(4-cyano-phenyl)-amide] 3-[(4-morpholin-4-yl-phenyl)-amide]], for which, in data set [1], the pIC50 was less than 5.30. Further, the TD50 entry in data set [2] is given as “** (key: * < 50 μM; ** > 50 μM)”.

In data set [1], `CCCS(=O)(=O)N1CCN(Cc2ccc(NC(=O)c3ccc(-c4cc(C(=O)Nc5ccc(N6CCOCC6)cc5)ccc4OC)cc3)cc2)CC1` [Example 257, 6-Methoxy-biphenyl-3,4′-dicarboxylic acid 3-[(4-morpholin-4-yl-phenyl)-amide] 4′-({4-[4-(propane-1-sulfonyl)-piperazin-1-ylmethyl]-phenyl}-amide)] gave a pIC50 greater than 6.00. Moreover, in data set [2] (setting [4]), the TD50 result was “* (* < 50 μM)”.

`CCCS(=O)(=O)N1CCN(Cc2ccc(NC(=O)c3ccc(-c4cc(NC(=O)[C@H]5CCCCN5)ccc4OC(F)(F)F)cc3)cc2)CC1` [Example 234, (R)-Piperidine-2-carboxylic acid (4′-{4-[4-(propane-1-sulfonyl)-piperazin-1-ylmethyl]-phenylcarbamoyl}-6-trifluoromethoxy-biphenyl-3-yl)-amide] had a pIC50 in data set [1] (setting [3]) greater than 6.00. Besides, in data set [2] (setting [4]), the TD50 entry is given as “* (* < 50 μM)”.

`Cc1cc(NC(=O)c2ccco2)ccc1-c1cccc(C(=O)Nc2ccc(CN3CCS(=O)(=O)CC3)cc2)c1` [Example 133, Furan-2-carboxylic acid {3′-[4-(1,1-dioxo-1lambda*6*-thiomorpholin-4-ylmethyl)-phenylcarbamoyl]-2-methyl-biphenyl-4-yl}-amide]: the pIC50 in data set [1] (setting [3]) was 5.30 to 6.00. For the same compound, in data set [2] (setting [4]), the TD50 result is “* (* < 50 μM)”.

In turn, `COc1ccc(S(=O)(=O)Nc2ccc(N3CCOCC3)cc2)cc1-c1ccc(C(=O)Nc2ccc(CN3CCN(S(=O)(=O)N(C)C)CC3)cc2)cc1` [Example 247, 2′-Methoxy-5′-(4-morpholin-4-yl-phenylsulfamoyl)-biphenyl-4-carboxylic acid [4-(4-dimethylsulfamoyl-piperazin-1-ylmethyl)-phenyl]-amide] had a pIC50 in data set [1] (setting [3]) greater than 6.00. Moreover, in data set [2] (setting [4]), the TD50 entry is reported as “* (* < 50 μM)”.

In data set [1] (setting [5]), `COc1cccc(C(=O)Nc2ccc(-c3cc(C(=O)Nc4ccc(N5CCOCC5)cc4)ccc3C)cc2)c1` [Example 112, 4′-(3-Methoxy-benzoylamino)-6-methyl-biphenyl-3-carboxylic acid (4-morpholin-4-yl-phenyl)-amide] had a pIC50 of 5.30 to 6.00. Also, in data set [2] (setting [4]), the TD50 result is reported as “* (* < 50 μM)”.

Take `CCCS(=O)(=O)N1CCN(Cc2ccc(NC(=O)c3ccc(-c4cc(NC(=O)[C@H]5CCCCN5)ccc4Cl)cc3)cc2)CC1` [Example 251, (R)-Piperidine-2-carboxylic acid {6-chloro-4′-[4-(4-(propane-1-sulfonyl)-piperazin-1-ylmethyl)-phenylcarbamoyl]-biphenyl-3-yl}-amide]: in data set [1] (setting [3]), the pIC50 was greater than 6.00. Also, the TD50 entry in data set [2] (setting [4]) is on record as “* (* < 50 μM)”.

The compound `CCC1(c2ccc(NC(=O)c3ccc(-c4cc(NC(=O)C5CC5)ccc4C)cc3)cc2)CCC(=O)NC1=O` (stereo not drawn) [Example 220, 5′-(Cyclopropanecarbonyl-amino)-2′-methyl-biphenyl-4-carboxylic acid [4-(3-ethyl-2,6-dioxo-piperidin-3-yl)-phenyl]-amide] gave a pIC50 in data set [1] (setting [3]) greater than 6.00. Besides, the TD50 result in data set [2] (setting [4]) is “* (* < 50 μM)”.

`Cc1ccc(C(=O)Nc2ccc(N3CCOCC3)cc2)cc1-c1ccc(C(=O)Nc2cccc(CN3CCS(=O)(=O)CC3)c2)cc1` [Example 136, 6-Methyl-biphenyl-3,4′-dicarboxylic acid 4′-{[3-(1,1-dioxo-1lambda*6*-thiomorpholin-4-ylmethyl)-phenyl]-amide} 3-[(4-morpholin-4-yl-phenyl)-amide]]: the pIC50 in data set [1] was 5.30 to 6.00. Besides, in data set [2], the TD50 entry is “* (key: * < 50 μM; ** > 50 μM)”.

In data set [1], `Cc1ccc(C(=O)Nc2ccc(N3CCOCC3)cc2)cc1-c1ccc(C(=O)Nc2ccc3cn[nH]c3c2)cc1` [Example 12, 6-Methyl-biphenyl-3,4′-dicarboxylic acid 4′-[(1H-indazol-6-yl)-amide] 3-[(4-morpholin-4-yl-phenyl)-amide]] gave a pIC50 of 5.30 to 6.00. The TD50 result in data set [2] is reported as “** (key: * < 50 μM; ** > 50 μM)”.

The compound `Cc1ccc(C(=O)Nc2ccc(N(C)C)cc2)cc1-c1ccc(C(=O)Nc2ccc(CN3CCS(=O)(=O)CC3)cc2)cc1` [Example 130, 6-Methyl-biphenyl-3,4′-dicarboxylic acid 3-[(4-dimethylamino-phenyl)-amide] 4′-{[4-(1,1-dioxo-1lambda*6*-thiomorpholin-4-ylmethyl)-phenyl]-amide}] had a pIC50 in data set [1] greater than 6.00. Besides, the TD50 entry in data set [2] is listed as “* (key: * < 50 μM; ** > 50 μM)”.

With `Cc1ccc(NC(=O)C2CCCCC2)cc1-c1ccc(C(=O)Nc2ccc(-c3ccno3)cc2)cc1` [Example 231, 5′-(Cyclohexanecarbonyl-amino)-2′-methyl-biphenyl-4-carboxylic acid (4-isoxazol-5-yl-phenyl)-amide], the pIC50 in data set [1] (setting [3]) was less than 5.30. Also, the TD50 entry in data set [2] (setting [4]) is “* (* < 50 μM)”.

`Cc1ccc(NC(=O)C2(C#N)CC2)cc1-c1ccc(C(=O)Nc2ccc(CN3CCS(=O)(=O)CC3)cc2)cc1` [Example 174, 5′-[(1-Cyano-cyclopropanecarbonyl)-amino]-2′-methyl-biphenyl-4-carboxylic acid [4-(1,1-dioxo-1lambda*6*-thiomorpholin-4-ylmethyl)-phenyl]-amide] gave a pIC50 in data set [1] (setting [3]) of 5.30 to 6.00. Moreover, the TD50 result in data set [2] (setting [4]) is reported as “* (* < 50 μM)”.

Turning to `Cc1ccc(C(=O)Nc2ccc(N3CCOCC3)cc2)cc1-c1ccc(NC(=O)Cc2cccc(Cl)c2)cc1` [Example 106, 4′-[2-(3-Chloro-phenyl)-acetylamino]-6-methyl-biphenyl-3-carboxylic acid (4-morpholin-4-yl-phenyl)-amide], the pIC50 in data set [1] (setting [3]) was 5.30 to 6.00. For the same compound, the TD50 entry in data set [2] (setting [4]) is listed as “** (** > 50 μM)”.

Consider `Cc1ccc(C(=O)Nc2ccc(N3CCOCC3)cc2)cc1-c1ccc(CN[C@@H](CO)C(=O)O)cc1` [Example 99, (S)-3-Hydroxy-2-{[2′-methyl-5′-(4-morpholin-4-yl-phenylcarbamoyl)-biphenyl-4-ylmethyl]-amino}-propionic acid], for which the pIC50 in data set [1] (setting [3]) is 5.30 to 6.00. Further, the TD50 result in data set [2] (setting [4]) is given as “** (** > 50 μM)”.

With `Cc1ccc(C(=O)Nc2ccc(N3CCOCC3)cc2)cc1-c1ccc(C(=O)Nc2cccc(C(=O)c3ccccc3)c2)cc1` [Example 19, 6-Methyl-biphenyl-3,4′-dicarboxylic acid 4′-[(3-benzoyl-phenyl)-amide] 3-[(4-morpholin-4-yl-phenyl)-amide]], in data set [1] (setting [5]), the pIC50 is 5.30 to 6.00. Further, the TD50 entry in data set [2] (setting [4]) is “** (** > 50 μM)”.

As to `Cc1ccc(-c2noc(C3CC3)n2)cc1-c1ccc(C(=O)Nc2ccc(CN3CCS(=O)(=O)CC3)cc2)cc1` [Example 205, 5′-(5-Cyclopropyl-[1,2,4]oxadiazol-3-yl)-2′-methyl-biphenyl-4-carboxylic acid [4-(1,1-dioxo-1lambda*6*-thiomorpholin-4-ylmethyl)-phenyl]-amide], the negative-log IC50 (pIC50) in data set [1] (setting [3]) was less than 5.30. The TD50 result in data set [2] (setting [4]) is “* (* < 50 μM)”.

Take `CC(=O)Nc1cccc(NC(=O)c2ccc(-c3cc(C(=O)Nc4ccc(N5CCOCC5)cc4)ccc3C)cc2)c1` [Example 72, 6-Methyl-biphenyl-3,4′-dicarboxylic acid 4′-[(3-acetylamino-phenyl)-amide] 3-[(4-morpholin-4-yl-phenyl)-amide]]: in data set [1], the pIC50 is 5.30 to 6.00. In addition, in data set [2], the TD50 entry was “* (key: * < 50 μM; ** > 50 μM)”.

In the case of `Cc1ccc(NC(=O)C2CC2)cc1-c1ccc(C(=O)Nc2ccc(CN3CCS(=O)(=O)CC3)cc2)cc1` [Example 132, 5′-(Cyclopropanecarbonyl-amino)-2′-methyl-biphenyl-4-carboxylic acid [4-(1,1-dioxo-1lambda*6*-thiomorpholin-4-ylmethyl)-phenyl]-amide], the pIC50 in data set [1] (setting [3]) is greater than 6.00. For the same compound, the TD50 entry in data set [2] (setting [4]) is “* (* < 50 μM)”.

`Cc1ccc(NS(=O)(=O)c2ccc(N3CCOCC3)nc2)cc1-c1ccc(C(=O)Nc2ccc(CN3CCS(=O)(=O)CC3)cc2)cc1` [Example 203, 2′-Methyl-5′-(6-morpholin-4-yl-pyridine-3-sulfonylamino)-biphenyl-4-carboxylic acid [4-(1,1-dioxo-1lambda*6*-thiomorpholin-4-ylmethyl)-phenyl]-amide] had a pIC50 in data set [1] (setting [3]) of 5.30 to 6.00. Moreover, the TD50 entry in data set [2] (setting [4]) is listed as “* (* < 50 μM)”.
